What was measured:
[1] = test system: carrageenan edema in the rat's paw; assay: carrageenan edema in the rat's paw, physical forms of PGA and Curcumin; type: in vivo; details: for edema as a percentage of the edema produced only by carrageenan (value of 100) / pharmacological effect on carrageenan edema (in words): rat; for edema as a percentage of the edema produced only by carrageenan (value of 100): PGA 30, PGA-m 20, CUR-m 10, PGACUR-m 30, PGA-sm 20 mg/kg; for pharmacological effect on carrageenan edema (in words): PGA 30, PGA-m 20, PGA-sm 20, CUR 10, PGACUR-m 30 mg/kg
Procedure: The experimental model of carrageenan edema was used in the rat's paw, which determines epithelial dysfunction at the paw level.
The experimental model of carrageenan edema in the paw was induced by sub-plantar injection of a carrageenan solution (containing 50 μl of sterile saline containing 1% carrageenan) into the right paw of the animal (rat).
At specific time intervals the plantar volume was measured by a plethysmometer (Ugo Basile, Milan, Italy). The increase in plantar volume was evaluated as the difference between the value obtained in the specific time intervals and the volume at baseline (time 0) measured immediately before the administration of carrageenan.
The following physical forms of N-palmitoyl-D-glucosamine were tested: • Non-micronized N-palmitoyl-D-glucosamine (PGA); • Micronized N-palmitoyl-D-glucosamine (PGA-m); • N-palmitoyl-D-glucosamine co-micronized with Curcumin (PGACUR-m); • N-palmitoyl-D-glucosamine in a sub-micron form (PGA-sm).
The following physical form of Curcumin was also tested: • Micronized Curcumin (CUR-m)
In all cases PGA was tested as a PGA/fatty acid mixture.
The thus obtained results, expressed as a percentage of the edema produced only by carrageenan (indicated with a value of 100), are as follows: […]

[2] = test system: carrageenan edema in the rat's paw; assay: carrageenan edema in the rat's paw, PGA with or without Polydatin; type: in vivo; details: Wistar rat, doses per group b126-b129, unit assumed
Procedure: Also in this case, the experimental model of carrageenan edema in the rat's paw was used, which determines epithelial dysfunction at the paw level.
The edema was induced by the sub-plantar injection of 50 μl of an aqueous 1% carrageenan solution. At time intervals (30 min, 1 h, 2 h, 3 h, 4 h, 5 h, 6 h) the volume of the injected paw was evaluated by means of a plethysmometer (Ugo Basile, Milan—Italy). The following physical forms of N-palmitoyl-D-glucosamine with or without Polydatin were tested in groups of 10 animals (Wistar strain weighing between 130 and 160 g) for each group, in the dosages indicated in brackets:
Group B) Carrageenan+micronized Palmitoylglucosamine (10 mg/kg)
Group C) Carrageenan+micronized Polydatin (1 mg/kg)
Group D) Carrageenan+Palmitoylglucosamine (10 mg/kg)+Polydatin (1 mg/kg) [mixed]
Group E) Carrageenan+Palmitoylglucosamine and co-micronized Polydatin [10:1] (11 mg/kg)

Compound | edema as a percentage of the edema produced only by carrageenan (value of 100) ([1]; 30 min) [%] | edema as a percentage of the edema produced only by carrageenan (value of 100) ([1]; 1 hr) [%] | edema as a percentage of the edema produced only by carrageenan (value of 100) ([1]; 2 hr) [%] | edema as a percentage of the edema produced only by carrageenan (value of 100) ([1]; 3 hr) [%] | edema as a percentage of the edema produced only by carrageenan (value of 100) ([1]; 4 hr) [%] | edema as a percentage of the edema produced only by carrageenan (value of 100) ([1]; 5 hr) [%] | Paw volume ([2]; 30 min from treatment) [mL] | Paw volume ([2]; 1 h from treatment) [mL] | Paw volume ([2]; 2 h from treatment) [mL] | Paw volume ([2]; 3 h from treatment) [mL] | Paw volume ([2]; 4 h from treatment) [mL] | Paw volume ([2]; 5 h from treatment) [mL] | Paw volume ([2]; 6 h from treatment) [mL] | pharmacological effect on carrageenan edema (in words) [1] | other results
COc1cc(/C=C/C(=O)CC(=O)/C=C/c2ccc(O)c(OC)c2)ccc1O [CUR-m, Curcumin, reference compound] | 100.3 | 95.4 | 95.1 | 94.8 | 96.2 | 97.4 |  |  |  |  |  |  |  |  | pharmacological effect on carrageenan edema (in words) ([1]; listed as micronized CUR): no significant pharmacological effect; pharmacological effect on carrageenan edema (in words) ([1]; listed as micronized Curcumin): almost total inactivity
OC[C@H]1O[C@@H](Oc2cc(O)cc(/C=C/c3ccc(O)cc3)c2)[C@H](O)[C@@H](O)[C@@H]1O [Group C), Polydatin, reference compound] |  |  |  |  |  |  | 0.21 | 0.32 | 0.69 | 1.03 | 1.19 | 1.28 | 0.95 |  | 
CCCCCCCCCCCCCCCC(=O)N[C@H]1C(O)O[C@H](CO)[C@@H](O)[C@@H]1O (stereo partly drawn) [PGA, N-palmitoyl-D-glucosamine] | 100.0 | 100.0 | 100.0 | 100.0 | 100.0 | 100.0 |  |  |  |  |  |  |  |  | pharmacological effect on carrageenan edema (in words) ([1]; listed as PGA (non-micronized)): no pharmacological effect; pharmacological effect on carrageenan edema (in words) ([1]; listed as non-micronized PGA): total inactivity; melting point: 202 °C (dec.)
CCCCCCCCCCCCCCCC(=O)N[C@H]1C(O)O[C@H](CO)[C@@H](O)[C@@H]1O (stereo partly drawn) [PGA-m, N-palmitoyl-D-glucosamine] | 100.0 | 92.2 | 80.1 | 71.5 | 70.4 | 75.5 | 0.23 | 0.33 | 0.81 | 1 | 1.21 | 1.33 | 1.05 | apparent pharmacological effect | reduction of the Carrageenan edema ([1]; PGA-m 20 mg/Kg, co-micronized PGA-m 20 mg/Kg + CUR 10 mg/kg, corresponds to the 5 hr values of Table 1): 24.5%
CCCCCCCCCCCCCCCC(=O)N[C@H]1C(O)O[C@H](CO)[C@@H](O)[C@@H]1O (stereo partly drawn) [PGA-sm, N-palmitoyl-D-glucosamine] | 100.0 | 100.0 | 98.0 | 97.0 | 98.0 | 98.0 |  |  |  |  |  |  |  | no significant pharmacological effect | pharmacological effect on carrageenan edema (in words) ([1]; listed as sub-micron PGA): markedly pejorative activity compared to the micronized PGA; pharmacological effect on carrageenan edema (in words) ([1]; listed as sub-micronized PGA): almost total inactivity

From patent US11744840B2, “N-palmitoyl-D-glucosamine in a micronized form” (Innovet Italia S.R.L., priority 2018, dated 2023)
